Data as given in patent US11001591B2, “TRAF 6 inhibitors” (HELMHOLTZ ZENTRUM MUENCHEN—DEUTSCHES FORSCHUNGSZENTRUM FÜR …, priority 2016, dated 2021).
Where two headings read alike, the source gives them in different places.

Tests used:
p-IκBα (Ser32/36) = assay: ALPHASurefire p-IκBα in IL-1β stimulated MEF cells; assay type: cell-based, mouse; settings: compared with C25, C25-189, C25-167; FIG. 1C
Method: In order to detect protein levels of p-IκBα (Ser32/36) as well as total IκBα, 1×10^4 MEF cells were seeded in 96-well plates, treated with compound for 6 hours and stimulated with 1 ng/ml IL-1β for 7 minutes. The p-IκBα and total IκBα protein levels were analyzed using the ALPHASurefire kits (PerkinElmer) following the manufacturer's instruction. The general 2-plate protocol was conducted.

MURF/TRIM63 = target: T1, MURF/TRIM63 (Homo sapiens, UniProt Q969Q1); assay: In vitro ubiquitination assay, MURF/TRIM63; assay type: biochemical; settings: K48 chain formation
T1 construct: purchased Boston Biochem one of K-102, K-260, K-200B, K-220, K-240, K-270
Method: (§1) For analysis of clAP1, MDM2, TRIM63, RNF4, ITCH and E6AP mediated poly-ubiquitination, the respective ubiquitin ligase kit from Boston Biochem (K-102, K-260, K-200B, K-220, K-240 and K-270) was used. Here, reaction buffer, E1, E2 and E3 enzyme (and p53 substrate in case of MDM2) were mixed and pre-incubated with compound or DMSO for 5 minutes at room temperature before adding Mg^2+-ATP and mono-ubiquitin for reaction start. Ubiquitination was visualized by Western Blot analyses.

RNF4 = target: T2, RNF4 (Homo sapiens, UniProt P78317); assay: In vitro ubiquitination assay, RNF4; assay type: biochemical
T2 construct: purchased Boston Biochem one of K-102, K-260, K-200B, K-220, K-240, K-270
Method: as §1

E6AP = target: T3, E6AP (Homo sapiens, UniProt Q05086); assay: In vitro ubiquitination assay, E6AP; assay type: biochemical; settings: HECT E3 ligase
T3 construct: purchased Boston Biochem one of K-102, K-260, K-200B, K-220, K-240, K-270
Method: as §1

[1] = tested on: Jurkat T-cells and U2OS cells; assay: Cell cycle assessment (propidium iodide); assay type: cell-based; settings: 24 hours and 72 hours treatment
Method: For cell cycle staining, cells were seeded at 2×10^5 cells per sample and treated with compound or DMSO. After the indicated incubation time (24 or 72 hours), cells were fixed in 100% Ethanol and subsequently stained with the Propidium Iodide staining solution (0.1% Triton X-100; 20 μg/ml Propidium Iodide; 200 μg/ml RNAse A in PBS) for 40 min in the dark. The Propidium Iodide fluorescence was collected using the Attune Flow Cytometer (Thermo Fisher Scientific). Analysis was performed using the Single Cell analysis software FlowJo.

IKK kinase activity = assay: IKK kinase assay in MEF cells; assay type: cell-based, mouse
Method: For MEF cells, 5.5×10^5 cells were seeded, then treated with compound for 6 hours and eventually stimulated with IL-1β or TNFα for 8 minutes. 1×10^6 Jurkat T-cells were treated with compound for 6 hours and finally stimulated with PMA (400 ng/ml) and lonomycin (600 ng/ml) for 8 minutes. After cell lysis in Co-IP lysis buffer (150 mM NaCl; 25 mM Hepes (pH 7.5); 0.2% NP-40; 1 mM Glycerol; 10 mM NaF; 8 mM β-Glycerophosphat; 1 mM DTT; 300 μM Sodium-vanadate; complete protease inhibitor), input samples were taken and the supernatant was then incubated with 6 μL IKKγ antibody FL-419 (Santa Cruz Biotechnology). Upon incubation with Protein-G-Sepharose beads (GE Healthcare), beads were washed in Co-IP wash buffer (150 mM NaCl; 25 mM Hepes (pH 7.5); 0.2% NP-40; 1 mM Glycerol) and transferred into kinase reaction buffer ([…] HEPES pH7.9; 10 mM MgCl2; 20 μM ATP; 20 mM β-Glycerophosphat; 200 μM Sodium-Vanadate; 1 mM DTT) supplemented with […] GST-IκBα (1-53) and 0.5 μL ^32P-γ-ATP. After 30 minutes incubation at 37° C., reaction was stopped and analyzed by autoradiography as well as Western Blot after separation on SDS-PAGE.

Plasma stability = assay type: in vitro ADME
Method: (§2) All ADME (plasma stability, plasma protein binding, microsomal stability, Log D, Caco-2 assay, CYP450 inhibition and hERG predictor assay) as well as pharmacokinetic studies (Tmax, Cmax, AUC0-240 min, Mean Residence Time, Elimination half life, Elimination rate constant, Volume of Distribution and Clearance) of C25-140 (compound 3) were conducted by Bienta Enamine Biology Services of Bienta/Enamine Ltd.

CYP450 = CYP450 inhibition; assay type: in vitro ADME
Method: as §2

[2] = Pharmacokinetic studies IV, PO, IP; assay type: in vivo; settings: for half-life: read-out: in vivo half-life in circulation
Method: as §2
The inventors also tested the pharmacokinetics (PK) of C25-140 after intravenous (IV), peroral (PO) and intraperitoneal (IP) injection of each 10 mg/kg compound. All the analyzed data are summarized in FIG. 9B and the concentration/time-course graph for IP administration is shown in FIG. 9C.

[3] = tested on: U2932 (ABC DLBCL-MYD88 wt); assay: Cell viability in DLBCL, U2932; assay type: cell-based; settings: 30 μM added at day 0, 4 and 8; 9 days
Method: To determine the effects of C25-140 on MYD88-dependent ABC-DLBCL, we chose the HBL1 (ABC-DLBCL-MYD88 L265P), U2932 (ABC DLBCL-MYD88 wt) and BJAB (GCB DLBCL) cell lines. 1×10^6 cells of each cell line was seeded in 5 ml and treated with 30 μM compound C25-140 (compound 3) or DMSO. The entire experiment was carried out for 9 days. Every day 500 μl were taken and viable cell number was acquired using the ViCEII cell counter (Beckmann Coulter). At days 4 and 8 of the experiment the volume was again adjusted to 5 ml and samples were supplemented with 30 μM compound C25-140 or DMSO. This process was necessary to ensure linear proliferation of DMSO treated cells. All curves of C25-140 treated samples were referred to the corresponding DMSO treated controls.

T2 sequence (P78317 whole entry, species assumed): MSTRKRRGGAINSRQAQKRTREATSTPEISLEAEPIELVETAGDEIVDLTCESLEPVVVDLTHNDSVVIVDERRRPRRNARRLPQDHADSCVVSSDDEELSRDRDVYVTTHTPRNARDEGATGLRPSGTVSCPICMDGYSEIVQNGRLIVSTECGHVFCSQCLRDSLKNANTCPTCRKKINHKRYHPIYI
T3 sequence (Q05086 whole entry): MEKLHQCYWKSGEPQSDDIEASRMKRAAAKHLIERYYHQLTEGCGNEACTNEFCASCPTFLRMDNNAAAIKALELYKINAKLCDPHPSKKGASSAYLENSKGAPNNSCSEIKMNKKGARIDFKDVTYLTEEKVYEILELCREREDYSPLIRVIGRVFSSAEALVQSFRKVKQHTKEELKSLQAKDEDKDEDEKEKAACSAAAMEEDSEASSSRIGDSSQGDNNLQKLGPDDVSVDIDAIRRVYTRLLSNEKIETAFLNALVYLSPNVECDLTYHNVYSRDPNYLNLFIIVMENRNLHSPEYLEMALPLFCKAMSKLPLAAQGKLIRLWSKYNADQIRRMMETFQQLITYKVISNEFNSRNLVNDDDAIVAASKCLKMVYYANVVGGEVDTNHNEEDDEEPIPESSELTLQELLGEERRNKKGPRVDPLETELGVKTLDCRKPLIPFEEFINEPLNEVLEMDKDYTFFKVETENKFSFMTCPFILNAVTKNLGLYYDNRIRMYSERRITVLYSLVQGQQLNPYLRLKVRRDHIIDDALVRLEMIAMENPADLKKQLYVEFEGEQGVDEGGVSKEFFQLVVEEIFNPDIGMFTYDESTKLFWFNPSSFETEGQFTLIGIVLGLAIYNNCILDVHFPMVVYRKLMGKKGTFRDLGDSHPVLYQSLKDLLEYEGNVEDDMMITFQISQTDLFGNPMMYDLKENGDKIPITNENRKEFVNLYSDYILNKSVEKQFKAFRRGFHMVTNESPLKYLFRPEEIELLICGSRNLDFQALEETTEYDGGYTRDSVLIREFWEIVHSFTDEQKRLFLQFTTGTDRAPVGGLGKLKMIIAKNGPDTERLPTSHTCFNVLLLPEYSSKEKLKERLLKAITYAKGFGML
T1 sequence (Q969Q1 whole entry): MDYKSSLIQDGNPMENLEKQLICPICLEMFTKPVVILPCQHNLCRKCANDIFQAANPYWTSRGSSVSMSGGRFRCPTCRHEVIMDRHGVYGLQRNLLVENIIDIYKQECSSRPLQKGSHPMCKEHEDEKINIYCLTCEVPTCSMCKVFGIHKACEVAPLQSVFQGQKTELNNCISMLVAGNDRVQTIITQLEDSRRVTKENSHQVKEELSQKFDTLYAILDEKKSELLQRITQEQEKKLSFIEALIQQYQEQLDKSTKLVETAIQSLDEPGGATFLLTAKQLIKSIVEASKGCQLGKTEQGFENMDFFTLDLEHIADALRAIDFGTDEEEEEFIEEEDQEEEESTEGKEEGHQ

- S5A ubiquitination by MURF/TRIM63 (MURF/TRIM63): not affected
- RNF4 auto-ubiquitination (RNF4): not affected
- S5A ubiquitination by E6AP (E6AP): not affected
- cell cycle progression [1]: not impaired
- plasma stability (Plasma stability): stable
- distribution phase ([2]; IV, PO, IP 10 mg/kg): rapid initial distribution phase
- half-life ([2]; in vivo, iv, 10 mg/kg): 1.33 h
- half-life ([2]; in vivo, po, 10 mg/kg): 2.12 h
- bioavailability ([2]; in vivo, po, calculated, 10 mg/kg): ~45%
- half-life ([2]; in vivo, IP administration, 10 mg/kg): 3.07 h
SMILES: Cc1nn(-c2ccc3nnc(C)n3n2)c(C)c1CCC(=O)N1CCC(Cc2ccccc2)CC1 [Compound 3, 1-(4-benzylpiperidin-1-yl)-3-(3,5-dimethyl-1-(3-methyl-[1,2,4]triazolo[4,3-b]pyridazin-6-yl)-1H-pyrazol-4-yl)propan-1-one]
- p-IκBα protein levels, ALPHASurefire (p-IκBα (Ser32/36)): more active
- IKK kinase activity after IL-1β stimulation (IKK kinase activity): decreased
- TNFα induced phosphorylation of IκBα (IKK kinase activity; TNFα): also affected
- CYP450 inhibition (CYP450): some inhibitory potential on selected CYPs
- adverse effects on animals during PK studies ([2]; 10 mg/kg): no obvious adverse effects
- viability (cell count) [3]: only slightly affected
